According to patent US20040234501A1, “Hepatitis b virus proliferation inhibitor” (priority 2001, published 2004):

Key:
[1] = Liver function (GPT) in a patient with chronic hepatitis B; format: in vivo, human
Procedure: (§1) Confirmation of the effect of IFN administration to a patient with chronic hepatitis B:
(§2) Therefore, 3,000,000 units of IFN-α were administered for a total of 28 days.

hepatitis B virus = experiment: Amount of hepatitis B virus in the blood (HBV-DNA) and emergence of resistant virus in a patient with chronic hepatitis B; format: in vivo, human; details: after termination of IFN-α; 3,000,000 units for a total of 28 days
Procedure: as §1, §2

## Nc1ccn([C@@H]2CS[C@H](CO)O2)c(=O)n1 [lamivudine, reference compound]
[1]; about 3 months after discontinuation of second lamivudine administration
  GPT (liver function acutely worsened): 567

## interferon-α [IFN-α]
Hepatitis B virus
  amount of hepatitis B virus in the blood: again increased
[1]; 3,000,000 units of IFN-α in combination with lamivudine, resistant virus present
  liver function: further worsened
[1]; after termination of IFN-α, 3,000,000 units for a total of 28 days
  liver function: worsened
